Target: SARS-CoV-2 3CLpro (Severe acute respiratory syndrome coronavirus 2, UniProt P0DTD1)
Assay: biochemical
Details: for inhibition at 50 µM: single point, 50 μM compound

Structure (SMILES) | IC50 | inhibition at 50 µM
CC[C@H](C)N(Cc1cccc(OC)c1)C[C@@H](O)COc1ccc(OC)cc1 [Compound 1] | 8.98 ± 0.57 µM | 85.4%
CC[C@H](C)[C@H](NC(=O)c1ccc2nc(-n3cccc3)sc2c1)C(=O)NCc1cccnc1 [Compound 5] | 8.5 ± 0.26 µM | 84%
COc1cc(-c2nc3cnccn3c2Nc2cccc(Cl)c2)ccc1O [Compound 10] | 9.08 ± 0.56 µM | 78%
CCOc1ccc(NC(=O)C(CC(C)C)NC(=O)C2CCC(C)CC2)cc1 (stereo not drawn) [Compound 34] | 6.12 ± 0.42 µM | 78.3%
COc1ccc(NC(=O)c2ccccc2NC(=O)c2ccc([N+](=O)[O-])c(C)c2)cc1 [Compound 36] | 4.47 ± 0.39 µM | 81.9%
CCC(CC)C(=O)Nc1cccc(C(=O)Nc2ccccc2C(=O)Nc2ccc(OC)cc2)c1 [Compound 43] | 6.99 ± 0.62 µM | 84.8%
